The source of these data is patent US20170079281A1, “CITRUS-BASED ANTIMICROBIAL COMPOSITION” (priority 2015, published 2017).

Structures are written as SMILES.

The subject of data set [1] is Salmonella typhimurium SL1344. Description: MIC by broth dilution method in 96-well microplates. It is filed as cell-based. To be noted: Mueller Hinton Broth, 24 h.
The next data set concerns Escherichia coli EDL 933. Described as above. The conditions noted are these: Mueller Hinton Broth, 24 h. Type of data set: cell-based.
Data set [2] relates to Staphylococcus aureus ATCC 25923. The data set is described as above. It is filed as cell-based. To be noted: Mueller Hinton Broth, 24 h.
Data set [3] deals with Xeromyces bisporus ATCC MY-36964. The data set is described as above. Type of data set: cell-based. To be noted: Mueller Hinton Broth, 24 h.
The next data set concerns Bacillus cereus L8PQ. The data set is described as above. It is filed as cell-based. To be noted: Mueller Hinton Broth, 24 h.
In data set [4] the test system is Zygosaccharomyces rouxii ATCC R 995. Described as above. To be noted: Mueller Hinton Broth, 24 h. It is filed as cell-based.
The next data set relates to yeast/molds (YM). The data set is described as follows: Accelerated shelf-life testing of strawberry fillings and puddings. It is filed as cell-based. The procedure:
(§1) The shelf-life of the strawberry fillings and strawberry flavor puddings, containing 0.2% by mass Composition A or 0.1% by mass sodium benzoate, […], from a procedure by Kilcast and Persis (2000) by determining the concentration of total aerobic microflora (TAM) and yeast/molds (YM). […]; Sheldon Manufacturing Inc., Cornelius, Oreg., USA), in order to simulate an accelerated maturity of the products. A storage time of 2 weeks in these conditions corresponds to 6 months in normal conditions (20° C., 45% RH). […] Samples were homogenized for 2 min at 260 rpm in 50 mL of sterile peptone water (0.1% w/v) with a Lab-Blender™ 400 stomacher (Laboratory Equipment, London, UK). From each homogenate, serial dilutions were prepared, plated onto surface of Plate Count Agar (PCA) (Difco, BD) for TAM enumeration or PDA for YM enumeration and incubated for 24-48 h at 37° C. (resp. 28° C.) before counting.

The subject of data set [5] is total aerobic microflora (TAM). Described as above. Type of data set: cell-based. The conditions noted are these: 0.2% by mass Composition A or 0.1% by mass sodium benzoate; 28° C., 70% RH, 35 days (Month 1 to Month 15). The procedure:
as §1

The subject of data set [6] is Aspergillus niger ATCC 1015. The data set is described as follows: MIC by broth dilution method in 96-well microplates. It is filed as cell-based. The conditions noted are these: Mueller Hinton Broth, 24 h.
In data set [7] the test system is Listeria monocytogenes HPB 2812. Described as above. It is filed as cell-based. To be noted: Mueller Hinton Broth, 24 h.
The conditions of data set [8]: has been reported; cited from earlier work.
The next data set has as its system S. cerevisiae ISI107. The data set is described as follows: MIC microtiter plate assay in filtered apple juice. Type of data set: cell-based, Saccharomyces cerevisiae. The conditions noted are these: filtered apple juice (pH 3.59), 25° C., aerobically.

For `O=C([O-])c1ccccc1.[Na+]` [Sodium benzoate, sodium benzoate], the MIC in data set [1] is given as 5 185 ppm; with Escherichia coli EDL 933, 10 730 ppm; in data set [2], 5 185 ppm; in data set [3], 81 ppm; in the data set on Bacillus cereus L8PQ, 5 185 ppm; in [4], 162 ppm. The values for the MIC in [6] and in data set [7] were 648 ppm and 5 185 ppm, respectively. The “Yeast/Mold (Y/M) concentration in strawberry flavor puddings” value with yeast/molds (YM) (0.2% Composition A or 0.1% sodium benzoate, after 35 days accelerated storage, also no growth in control, data not shown) is “no growth”. For the same molecule, in the data set with yeast/molds (YM) (0.2% by mass Composition A or 0.1% by mass sodium benzoate, 28° C., 70% RH, 35 days (Month 1 to Month 15)), the “Yeast/Mold (Y/M) concentration in strawberry fillings” value is given as “total inhibition”. The “TAM concentration in strawberry fillings” value in data set [5] is reported as “total inhibition”.
As for `CCCCCCCCCCCC(=O)N[C@@H](CCCN=C(N)N)C(=O)OCC` [lauric arginate, ethyl lauroyl arginate], the “Resistance to thermal processing” value in data set [8] is recorded as “resistant to all types of thermal processing including boiling”. The MIC entry against S. cerevisiae ISI107 was “about 156 ppm”.
